Tests used:
Format in all cases: cell-based
[1] = target: T1, 3-oxo-5-alpha-steroid 4-dehydrogenase 2 (Homo sapiens, UniProt P31213); experiment: Inhibitory concentration against human steroid 5-alpha-reductase 2 receptor expressed in CHO 1829 cells
T1 sequence (P31213 whole entry): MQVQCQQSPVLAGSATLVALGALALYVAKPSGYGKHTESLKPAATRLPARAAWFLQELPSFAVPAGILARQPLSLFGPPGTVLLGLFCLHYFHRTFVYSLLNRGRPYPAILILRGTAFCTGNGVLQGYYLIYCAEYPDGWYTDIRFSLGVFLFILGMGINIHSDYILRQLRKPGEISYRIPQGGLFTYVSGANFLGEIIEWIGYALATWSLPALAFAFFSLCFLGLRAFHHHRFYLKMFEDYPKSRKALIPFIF

[2] = target: T2, 3-oxo-5-alpha-steroid 4-dehydrogenase 1 (Homo sapiens, UniProt P18405); experiment: Inhibitory concentration against human steroid 5-alpha-reductase I receptor expressed in CHO 1827 cells
T2 sequence (P18405 whole entry): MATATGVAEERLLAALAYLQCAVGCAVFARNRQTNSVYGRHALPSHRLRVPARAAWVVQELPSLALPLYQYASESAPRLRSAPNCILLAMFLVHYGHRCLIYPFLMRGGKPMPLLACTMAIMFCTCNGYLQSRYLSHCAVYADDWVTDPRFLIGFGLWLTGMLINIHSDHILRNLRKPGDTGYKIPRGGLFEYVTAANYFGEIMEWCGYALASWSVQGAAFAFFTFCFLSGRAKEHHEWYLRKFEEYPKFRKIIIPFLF

[3] = target: T1, 3-oxo-5-alpha-steroid 4-dehydrogenase 2; experiment: Inhibitory concentration against human steroid 5-alpha-reductase 2 receptor expressed in CHO 1829 cells; la= low activity
[4] = target: T2, 3-oxo-5-alpha-steroid 4-dehydrogenase 1; experiment: Inhibitory concentration against human steroid 5-alpha-reductase I receptor expressed in CHO 1827 cells; la= low activity

Row | IC50 [1] [µM] | IC50 [2] [µM] | IC50 [3] | IC50 [4] | SMILES
1 | 0.801 | 0.272 | – | – | CC1=C2CCc3cc(C(=O)Oc4ccc(N)cc4)ccc3N2CCC1=O
2 | 0.134 | 0.16 | – | – | CC1=C2CCc3cc(C(=O)Oc4cccc(F)c4)ccc3N2CCC1=O
3 | 0.119 | 0.093 | – | – | CC1=C2CCc3cc(C(=O)Oc4ccc(F)cc4)ccc3N2CCC1=O
4 | < 0.05 | – | – | – | CC1=C2CCc3cc(C(=O)OC(C)C)ccc3N2CCC1=O
5 | 0.467 | – | – | – | COC(=O)c1cccc(OC(=O)c2ccc3c(c2)CCC2=C(C)C(=O)CCN23)c1
6 | 4.8 | – | – | – | CCOC(=O)c1ccc2c(c1)CCC1=C(C)C(=O)CCN12
7 | – | 1.4 | Low activity | – | CC1=C2CCc3cc(C(=O)Oc4ccc(Cl)cc4)ccc3N2CCC1=O
8 | 0.368 | 0.042 | – | – | CC1=C2CCc3cc(C(=O)Oc4ccccc4C(F)(F)F)ccc3N2CCC1=O
9 | 9.5 | – | – | – | CC1=C2CCc3cc(C(=O)OCc4ccccc4)ccc3N2CCC1=O
10 | 0.166 | 0.138 | – | – | CC1=C2CCc3cc(C(=O)Oc4ccccc4F)ccc3N2CCC1=O
11 | – | 1 | Low activity | – | CC1=C2CCc3cc(C(=O)Nc4ccc(C)cc4)ccc3N2CCC1=O
12 | – | – | Low activity | – | CC1=C2CCc3cc(C(=O)Oc4ccc(C(C)(C)C)cc4)ccc3N2CCC1=O
13 | 0.665 | 0.268 | – | – | CCCNC(=O)c1ccc(OC(=O)c2ccc3c(c2)CCC2=C(C)C(=O)CCN23)cc1
14 | 0.553 | 0.102 | – | – | CC1=C2CCc3cc(C(=O)Oc4ccc(C)cc4)ccc3N2CCC1=O
15 | 1 | 0.271 | – | – | CC1=C2CCc3cc(C(=O)Oc4cccc(C(F)(F)F)c4)ccc3N2CCC1=O
16 | 0.255 | 0.707 | – | – | CC(=O)Nc1ccc(OC(=O)c2ccc3c(c2)CCC2=C(C)C(=O)CCN23)cc1
17 | 0.308 | 0.361 | – | – | CC1=C2CCc3cc(C(=O)Oc4ccc(C(N)=O)cc4)ccc3N2CCC1=O
18 | – | 0.225 | Low activity | – | CC1=C2CCc3cc(C(=O)Oc4ccc(C(=O)NC(C)(C)C)cc4)ccc3N2CCC1=O
19 | 0.372 | 0.463 | – | – | CCN(CC)C(=O)c1ccc(OC(=O)c2ccc3c(c2)CCC2=C(C)C(=O)CCN23)cc1
20 | 2.1 | – | – | – | COC(=O)c1ccc2c(c1)CCC1=C(C)C(=O)CCN12
21 | 0.584 | 0.129 | – | – | COC(=O)c1ccc(OC(=O)c2ccc3c(c2)CCC2=C(C)C(=O)CCN23)cc1
22 | – | – | Low activity | Low activity | CC1=C2CCc3cc(C(=O)NC(C)(C)C)ccc3N2CCC1=O
23 | – | 6.99 | Low activity | – | CC1=C2CCc3cc(C(=O)OCCCO)ccc3N2CCC1=O
24 | 1.2 | 0.149 | – | – | CC1=C2CCc3cc(C(=O)Oc4ccc(C(F)(F)F)cc4)ccc3N2CCC1=O
25 | 3.3 | 0.209 | – | – | CCOc1ccc(OC(=O)c2ccc3c(c2)CCC2=C(C)C(=O)CCN23)cc1
26 | – | – | Low activity | – | CC1=C2CCc3cc(C(=O)OC(C)(C)C)ccc3N2CCC1=O
27 | 0.295 | – | – | – | CC1=C2CCc3cc(C(=O)Oc4ccccc4)ccc3N2CCC1=O
28 | – | – | Low activity | Low activity | CC1=C2CCc3cc(C(=O)N(C(C)C)C(C)C)ccc3N2CCC1=O
29 | 1.2 | 0.116 | – | – | COc1ccc(OC(=O)c2ccc3c(c2)CCC2=C(C)C(=O)CCN23)cc1

Row | SMILES | IC50 [1] [µM] | IC50 [2] [µM] | IC50 [3] | IC50 [4]
30 | CCN(CC)C(=O)c1ccc2c(c1)CCC1=C(C)C(=O)CCN12 | – | – | Low activity | Low activity

— ChEMBL document CHEMBL1145142, “Synthesis and activity of 8-substituted benzo[c]quinolizin-3-ones as dual inhibitors of human 5alpha-reductases 1 and 2” (Bioorg Med Chem Lett, 2005)
